Data from patent publication US12624018B1, “Inhibitors of RIPK2 and medical uses thereof” (Odyssey Therapeutics, Inc., priority 2022, dated 2026).
Where two headings read alike, the source gives them in different places.

Legend:
[1] = tested on: TNF-alpha secretion in human whole blood; test: Inhibition of TNF-alpha secretion in human whole blood (IFN-gamma primed, L18-MDP stimulated); format: cell-based; conditions: L18-MDP 100 ng/mL, read-out: Human Whole Blood TNFα IC50
Experimental: Materials: Assay medium consisted of RPMI 1640 medium (catalogue number: 11875119) and 10% heat inactivated FBS (Cytvia). U-PLEX Biomarker Assay (cat #K15067L-4) to detect levels of TNF-alpha was purchased from Meso Scale Discovery. Heparinized whole blood from healthy donors/volunteers was obtained through Research Blood Components, LLC.
Test compounds were prepared into a 10 mM DMSO solution and serially diluted into 9 points using a 3-fold dilution in a 96 well plate. A 10× working stock solution of recombinant human IFN-gamma (final concentration of 10 ng/mL) was prepared in assay medium and used to prepare a 10× solution of test compound. 20 μL of 10×IFN-gamma and test compound (or DMSO control) was added to a 96-well plate. 160 μL of heparinized whole blood obtained from healthy donors was dispensed into individual wells of the 96-well plate and placed on a plate shaker (150 rpm) and incubated for 60 min at 37° C. in a CO2 incubator. Subsequently, 20 μL of L18-MDP (final concentration of 100 ng/mL) was added to the appropriate wells and further incubated for 16 hours on a plate shaker (150 rpm) at 37° C. in a CO2 incubator. The final concentration of DMSO was 0.05% (v/v) in all wells. After incubation, 100 μL of DPBS was added per well, mixed by shaking at 500 rpm for 2 minutes, followed by centrifugation (400×g for 10 minutes) and collection of supernatants. TNF-alpha in supernatants was measured using MSD immunoassay (MesoScale Discovery). 4-parametric curve fit was used to determine the test compound concentration that results in 50% reduction of TNF-alpha concentration in supernatant relative to assay controls.

[2] = target: T1, RIPK2 and XIAP protein-protein interaction (Homo sapiens, UniProt O43353); test: Inhibition of the interaction of RIPK2 with XIAP (NanoBRET in HEK293T cells); format: cell-based; conditions: RIPK2 HaloTag / XIAP NanoLuc, read-out: NanoBRET Scaffolding IC50
T1 construct: the N-terminus of full-length RIPK2 was appended with the HaloTag fusion protein; expressed in transfected cells; host or cells: HEK293T
T1 sequence (O43353 whole entry, the tested form may be a part): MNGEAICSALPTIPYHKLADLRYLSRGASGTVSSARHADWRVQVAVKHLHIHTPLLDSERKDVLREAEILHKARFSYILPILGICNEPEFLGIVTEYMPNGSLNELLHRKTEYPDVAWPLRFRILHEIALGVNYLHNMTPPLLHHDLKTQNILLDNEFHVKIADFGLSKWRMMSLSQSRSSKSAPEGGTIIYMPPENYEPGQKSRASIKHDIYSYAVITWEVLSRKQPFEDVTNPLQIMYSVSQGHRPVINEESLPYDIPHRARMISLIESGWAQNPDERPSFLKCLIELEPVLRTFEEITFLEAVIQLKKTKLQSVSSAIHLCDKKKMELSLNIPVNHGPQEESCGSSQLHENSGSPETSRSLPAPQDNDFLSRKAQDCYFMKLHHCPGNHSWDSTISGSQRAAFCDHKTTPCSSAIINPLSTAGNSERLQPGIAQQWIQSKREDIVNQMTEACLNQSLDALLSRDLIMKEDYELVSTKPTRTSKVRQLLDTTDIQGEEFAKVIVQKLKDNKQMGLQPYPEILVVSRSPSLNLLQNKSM
How it was run: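 HEK293T cells transiently co-transfected with HaloTag-RIPK2 (N-terminal) and XIAP-NanoLuc (C-terminal) full-length fusions, grown 24 h at 37° C. in Opti-MEM with 4% FBS. Compounds tested as 10-point 3-fold dilutions; NanoBRET ratio taken as 618 nm acceptor over 460 nm donor emission.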

RIPK2 enzyme = target: T2, RIPK2 enzyme (Homo sapiens, UniProt O43353); test: RIPK2 inhibition (ADP-Glo Kinase Assay); format: biochemical; conditions: RIPK2 5 nM, ATP 150 μM, MBP substrate, read-out: RIPK2 IC50
T2 construct: purchased Carna 09-128
T2 sequence (O43353 1-299 limits assumed): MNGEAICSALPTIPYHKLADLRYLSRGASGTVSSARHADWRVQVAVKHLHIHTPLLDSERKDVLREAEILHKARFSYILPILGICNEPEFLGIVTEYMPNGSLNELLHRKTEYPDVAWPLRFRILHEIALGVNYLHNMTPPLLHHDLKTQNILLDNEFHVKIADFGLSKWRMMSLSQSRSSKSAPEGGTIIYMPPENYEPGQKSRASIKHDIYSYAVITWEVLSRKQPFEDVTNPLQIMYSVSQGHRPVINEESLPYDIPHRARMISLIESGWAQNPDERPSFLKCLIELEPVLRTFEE
How it was run: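 Human RIPK2 (5 nM) preincubated with compound 30 min at room temperature in 50 mM HEPES pH 7.5, 10 mM MgCl2, 2 mM DTT, 1 mM EGTA, 0.01% Brij-35, 0.05% BSA; native swine MBP as substrate. ADP formed quantified by ADP-Glo luminescence; percent inhibition relative to DMSO and no-enzyme controls.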

human NOD2 signaling = test: Inhibition of human NOD2 signaling in HEK-Blue-hNOD2 cells (L18-MDP stimulated, SEAP reporter); format: cell-based; conditions: NOD2 ligand stimulation, SEAP reporter, read-out: hNOD2 IC50
How it was run: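 HEK-Blue-hNOD2 cells (HEK293 with NOD2 and SEAP reporter), 12500/well, treated with 10-point 3-fold compound dilutions plus L18-MDP 0.5 ng/mL final, 24 h at 37 °C. Supernatant SEAP read with QUANTI-Blue after 3 h at 620 nm; IC50 by 4-parameter fit vs DMSO±L18-MDP controls.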

[3] = Homo sapiens, HEK-Blue hNOD2, HEK-Blue-hNOD2 cells

Q: How did the IC50 ([1]; 16 hours) turn out when `Cc1cc(CC(=O)Nc2cnn(C(C)(C)C)c2)ccc1Oc1ccnc2ccc(S(=N)(=O)C3CC3)cc12` (single isomer, unassigned) [Compound 544, N-(1-(tert-butyl)-1H-pyrazol-4-yl)-2-(4-((6-(cyclopropanesul-fonimidoyl)quinolin-4-yl)oxy)-3-methylphenyl) acetamide] was run?
A: The IC50 was 4.5 nM.

Q: And the IC50 [2]?
A: The IC50 was 123 nM.

Q: And the IC50 (RIPK2 enzyme)?
A: Its IC50 is under 2.5 nM.

Q: And the IC50 (human NOD2 signaling; HEK-Blue-hNOD2 cells)?
A: Its IC50 is 2 nM.

Q: `CCS(=N)(=O)c1ccc2nccc(Oc3ccc(CC(=O)Nc4cnn(C(C)(C)C)c4)cc3C)c2c1` (single isomer, unassigned) [Compound 545, N-(1-(tert-butyl)-1H-pyrazol-4-yl)-2-(4-((6-(ethylsulfonimidoyl)quinolin-4-yl)oxy)-3-methylphenyl) acetamide] was tested. Which IC50 ([1]; Homo sapiens, 16 h) did it give?
A: The IC50 was 5.9 nM.

Q: What about the IC50 [2] of the same compound?
A: Its IC50 is 184 nM.

Q: What about the IC50 (RIPK2 enzyme) of the same compound?
A: Its IC50 is under 2.5 nM.

Q: And the IC50 (human NOD2 signaling; [3])?
A: Its IC50 is 1.8 nM.

Q: `CCS(=N)(=O)c1ccc2nccc(Oc3ccc(CC(=O)Nc4cnn(C(C)(C)C)c4)cc3C)c2c1` (single isomer, unassigned) [Compound 546, N-(1-(tert-butyl)-1H-pyrazol-4-yl)-2-(4-((6-(ethylsulfonimidoyl)quinolin-4-yl)oxy)-3-methylphenyl) acetamide] was tested. Which IC50 ([1]; 16 hours) did it give?
A: The IC50 was 4 nM.

Q: And the IC50 [2]?
A: Its IC50 is 204 nM.

Q: What about the IC50 (RIPK2 enzyme) of the same compound?
A: Its IC50 is under 2.5 nM.

Q: And the IC50 (human NOD2 signaling; HEK-Blue-hNOD2 cells)?
A: The IC50 was 1.4 nM.

Q: What does the source list for `COc1ccc2ncnc(Oc3ccc(CC(=O)Nc4cnn(C(C)(C)C)c4)c(F)c3)c2c1` [Compound 8, N-(1-(tert-butyl)-1H-pyrazol-4-yl)-2-(2-fluoro-4-((6-methoxy-quinazolin-4-yl)oxy)phenyl) acetamide]?
A: IC50 ([1]; Homo sapiens, 16 h): 103 nM; IC50 [2]: 6 nM; IC50 (RIPK2 enzyme): 7.6 nM; IC50 (human NOD2 signaling; [3]): 11.4 nM

Q: Which IC50 ([1]; Homo sapiens, 16 h) does the source give for `CN1CCC(Oc2ccc3ncnc(Oc4cnc(CC(=O)Nc5cnn(C(C)(C)C)c5)c(F)c4)c3c2)CC1` [Compound 20, N-(1-(tert-butyl)-1H-pyrazol-4-yl)-2-(3-fluoro-5-((6-((1-methylpiperidin-4-yl)oxy)quinazolin-4-yl)oxy)pyridin-2-yl)acetamide] here?
A: Its IC50 is 12 nM.

Q: What about the IC50 [2] of the same compound?
A: Its IC50 is 144 nM.

Q: What about the IC50 (RIPK2 enzyme) of the same compound?
A: The IC50 was 10.4 nM.

Q: What about the IC50 (human NOD2 signaling; [3]) of the same compound?
A: The IC50 was 21.7 nM.

Q: With `CC(C)(C)n1cc(NC(=O)Cc2ccc(Oc3ccnc4ccc(S(C)(=N)=O)cc34)cc2F)cn1` (stereo not shown) [Compound 43, N-(1-(tert-butyl)-1H-pyrazol-4-yl)-2-(2-fluoro-4-((6-(S-methylsulfonimidoyl)quinolin-4-yl)oxy)phenyl)acetamide] as the compound, how does the IC50 ([1]; Homo sapiens, 16 h) read?
A: The IC50 was 5 nM.

Q: And the IC50 [2]?
A: The IC50 was 218 nM.

Q: And the IC50 (RIPK2 enzyme)?
A: Its IC50 is 4.8 nM.

Q: And the IC50 (human NOD2 signaling; [3])?
A: Its IC50 is 39.3 nM.

Q: What does the source list for `CN1CCC(Oc2ccc3nccc(Oc4cnc(CC(=O)Nc5cnn(C(C)(C)C)c5)c(F)c4)c3c2)CC1` [Compound 78, N-(1-(tert-butyl)-1H-pyrazol-4-yl)-2-(3-fluoro-5-((6-((1-methylpiperidin-4-yl)oxy)quinolin-4-yl)oxy)pyridin-2-yl)acetamide]?
A: IC50 ([1]; Homo sapiens, 16 h): 7 nM; IC50 [2]: 37 nM; IC50 (RIPK2 enzyme): 13.4 nM; IC50 (human NOD2 signaling; [3]): 32.7 nM

Q: What does the source list for `Cc1cc(CC(=O)Nc2cnn(C(C)(C)C)c2)ccc1Oc1ccnc2ccc(OC3CCN(C)CC3)cc12` [Compound 82, N-(1-(tert-butyl)-1H-pyrazol-4-yl)-2-(3-methyl-4-((6-((1-methyl-piperidin-4-yl)oxy)quinolin-4-yl)oxy)phenyl) acetamide]?
A: IC50 ([1]; 16 hours): 4 nM; IC50 [2]: 6 nM; IC50 (RIPK2 enzyme): < 2.5 nM; IC50 (human NOD2 signaling; HEK-Blue-hNOD2 cells): 1.9 nM

Q: With `Cc1cc(CC(=O)Nc2cnn(C(C)(C)C)c2)ccc1Oc1ncnc2ccc(OC3CCN(C)CC3)cc12` [Compound 84, N-(1-(tert-butyl)-1H-pyrazol-4-yl)-2-(3-methyl-4-((6-((1-methyl-piperidin-4-yl)oxy)quinazolin-4-yl)oxy)phenyl) acetamide] as the compound, how does the IC50 ([1]; 16 hours) read?
A: The IC50 was 4 nM.

Q: And the IC50 [2]?
A: The IC50 was 37 nM.

Q: And the IC50 (RIPK2 enzyme)?
A: Its IC50 is 9.3 nM.

Q: And the IC50 (human NOD2 signaling; HEK-Blue-hNOD2 cells)?
A: Its IC50 is 19.2 nM.

Q: `CC(C)(C)n1cc(NC(=O)Cc2ccc(Oc3ccnc4ccc(S(C)(=O)=O)cc34)c(C(F)F)c2)cn1` [Compound 92, N-(1-(tert-butyl)-1H-pyrazol-4-yl)-2-(3-(difluoromethyl)-4-((6-(methylsulfonyl)quinolin-4-yl)oxy)phenyl)acetamide] was tested. Which IC50 ([1]; Homo sapiens, 16 h) did it give?
A: The IC50 was 40 nM.

Q: What about the IC50 [2] of the same compound?
A: Its IC50 is 132 nM.

Q: And the IC50 (RIPK2 enzyme)?
A: Its IC50 is under 2.5 nM.

Q: And the IC50 (human NOD2 signaling; [3])?
A: The IC50 was 6.6 nM.
